pIC50: −log10 of the molar value.
System: 885724-159-R-J1-PDC complex spheroid viability
Assay: Anticancer human tumor 885724-159-R-J1-PDC patient-derived pancreatic adenocarcinoma cell line growth inhibition [GQUAD]
Settings: for pIC50: curve of first compound; for viability, T/C: stronger effect = lower value
Method in brief: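 Viability of tumor cells grown as complex spheroids with endothelial and stromal cells, exposed to drug combinations. Top concentration at or near clinical Cmax (else 10 microM), diluted in half-log increments.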
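Also: spheroids exposed to agents for seven days before readout.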
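For viability, T/C in this document: percent of vehicle control viability where 100% = DMSO wells.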

`CC[C@@]1(O)C(=O)OCc2c1cc1n(c2=O)Cc2cc3c(CN(C)C)c(O)ccc3nc2-1` + Cc1cnc(CNC(=O)c2c(=O)c3ccc(N4CCCN(C)CC4)nc3n3c2sc2ccccc23)cn1 was tested, and the pIC50 (second compound 0.0316 µM) was under 6.50, the pIC50 (second compound 0.1 µM) was under 6.50 and the pIC50 (second compound 0.316 µM) was under 6.50. The pIC50 (second compound 1 µM) was under 6.50, the pIC50 (second compound 3.16 µM) was under 6.50 and the pIC50 (second compound 10 µM) was under 6.50. For the same molecule, the viability, T/C (second compound 0.0316 µM, first compound 0.000999 µM) was 117%, the viability, T/C (second compound 0.0316 µM, first compound 0.00316 µM) was 95.5% and the viability, T/C (second compound 0.0316 µM, first compound 0.00999 µM) was 103%. For the same molecule, the viability, T/C (second compound 0.0316 µM, first compound 0.0316 µM) was 106%, the viability, T/C (second compound 0.0316 µM, first compound 0.0999 µM) was 89.1% and the viability, T/C (second compound 0.0316 µM, first compound 0.316 µM) was 65.5%. It also gave a viability, T/C (second compound 0.1 µM, first compound 0.000999 µM) of 125%, a viability, T/C (second compound 0.1 µM, first compound 0.00316 µM) of 98.7% and a viability, T/C (second compound 0.1 µM, first compound 0.00999 µM) of 101%. It also gave a viability, T/C (second compound 0.1 µM, first compound 0.0316 µM) of 103%, a viability, T/C (second compound 0.1 µM, first compound 0.0999 µM) of 85.5% and a viability, T/C (second compound 0.1 µM, first compound 0.316 µM) of 75.2%. For the same molecule, the viability, T/C (second compound 0.316 µM, first compound 0.000999 µM) was 96.1%, the viability, T/C (second compound 0.316 µM, first compound 0.00316 µM) was 104% and the viability, T/C (second compound 0.316 µM, first compound 0.00999 µM) was 87.6%. The viability, T/C (second compound 0.316 µM, first compound 0.0316 µM) was 95%, the viability, T/C (second compound 0.316 µM, first compound 0.0999 µM) was 100% and the viability, T/C (second compound 0.316 µM, first compound 0.316 µM) was 70.1%. It also gave a viability, T/C (second compound 1 µM, first compound 0.000999 µM) of 88.6%, a viability, T/C (second compound 1 µM, first compound 0.00316 µM) of 84.1% and a viability, T/C (second compound 1 µM, first compound 0.00999 µM) of 95.2%. It also gave a viability, T/C (second compound 1 µM, first compound 0.0316 µM) of 80.3%, a viability, T/C (second compound 1 µM, first compound 0.0999 µM) of 87.8% and a viability, T/C (second compound 1 µM, first compound 0.316 µM) of 70.3%. It also gave a viability, T/C (second compound 3.16 µM, first compound 0.000999 µM) of 74.8%, a viability, T/C (second compound 3.16 µM, first compound 0.00316 µM) of 69.5% and a viability, T/C (second compound 3.16 µM, first compound 0.00999 µM) of 75%. The viability, T/C (second compound 3.16 µM, first compound 0.0316 µM) was 75.9%, the viability, T/C (second compound 3.16 µM, first compound 0.0999 µM) was 73.9% and the viability, T/C (second compound 3.16 µM, first compound 0.316 µM) was 64.5%. It also gave a viability, T/C (second compound 10 µM, first compound 0.000999 µM) of 70.7%, a viability, T/C (second compound 10 µM, first compound 0.00316 µM) of 81.1% and a viability, T/C (second compound 10 µM, first compound 0.00999 µM) of 72.7%. The viability, T/C (second compound 10 µM, first compound 0.0316 µM) was 74.2%, the viability, T/C (second compound 10 µM, first compound 0.0999 µM) was 80% and the viability, T/C (second compound 10 µM, first compound 0.316 µM) was 69.1%.

Reference: PubChem BioAssay AID2060502 (Molecular Pharmacology Branch, DTP, NCI, 2025)
